The source of these data is US20160120848A1, “SPECIFIC CANCER TREATMENT REGIMES WITH GANETESPIB” (SYNTA PHARMACEUTICALS CORP., priority 2013, published 2016).

For data set [1], the system named is inflammatory breast cancer. Nature of the data set: Phase 1b study of ganetespib with doxorubicin, cyclophosphamide and docetaxel. Type of data set: in vivo, patients. The conditions noted are these: combination with doxorubicin. The source says: This is an open-label, multicenter, Phase 1b, dose-escalation study in patients with locally advanced and inflammatory breast cancer. The purpose of the study is to test the safety and tolerability of ganetespib in patients with operable breast cancer.
Eligible patients must be treatment naïve with histologic confirmation of breast adenocarcinoma, and a tumor that is readily accessible for sequential biopsy. Before the study, patients undergo a complete physical examination, laboratory investigations, chest x-ray, a mammogram and a breast ultrasonography and other imaging studies (e.g., MRI, PET-CT, or mammogram) to determine the local extent of the disease. Abdominal CT scan is performed to exclude metastatic disease. The methods used to document baseline status must be consistently used throughout the study. Prior to entering the study, HER2 status of the tumor is determined by the local lab.
A pharmacodynamics phase consists of ganetespib single agent given at a dose of 150 mg/m^2 twice for 1 week prior to start of dose escalation phase (approximately on Days −7 and −4). A pre-dose tumor biopsy is obtained within 15+/−3 days prior to initiating treatment with ganetespib. A post-treatment […] is obtained on Day −4, to evaluate the effects of ganetespib on downstream effectors regulating tumor proliferation and survival, as well as potential effects on HIF1-transcriptional activity. […]

The test system of data set [2] is advanced non-small-cell lung cancer (NSCLC) of non-squamous histology. The data set can be described thus: Phase I study of ganetespib in combination with docetaxel in advanced NSCLC. The conditions noted are these: ganetespib 150 mg/m^2 in combination with docetaxel (75 or 60 mg/m^2). Type of data set: in vivo, patients. As to the method: In the first cohort (Cohort 1), patients with advanced solid tumor malignancies are treated with 75 mg/m^2 of ganetespib monotherapy. In the second cohort (Cohort 2), patients with advanced solid tumor malignancies are treated with 150 mg/m^2 of ganetespib monotherapy. In the third cohort (Cohort 3), patients with advanced NSCLC are treated with ganetespib (150 mg/m^2) in combination with docetaxel (75 mg/m^2). In the case of intolerability of the third cohort's combination regimen, in a fourth cohort (Cohort 4), patients with advanced NSCLC are treated with ganetespib (150 mg/m^2) in combination with docetaxel (60 mg/m^2).
Patients with advanced NSCLC, excluding patients with squamous cell histology, are administered ganetespib and docetaxel in Cohort 3.
The purpose of this cohort is to explore the PK and tolerability of ganetespib in combination with docetaxel. Patients enrolled in this cohort receive ganetespib 150 mg/m^2 in combination with docetaxel 75 mg/m^2.
On Day 1 of each 3-week treatment cycle, ganetespib and docetaxel are administered as separate 1-hour intravenous infusions. Administration of ganetespib precedes the administration of docetaxel. There is a 1-hour “rest” period following the end of the ganetespib infusion and prior to docetaxel infusion.
On Day 15, patients receive 150 mg/m^2 single-agent ganetespib administered via a 1-hour intravenous infusion. […]

Regarding `CC(C)c1cc(-c2n[nH]c(=O)n2-c2ccc3c(ccn3C)c2)c(O)cc1O` [ganetespib], in data set [1], the efficacy result is on record as “efficacious” and the safety profile entry is recorded as “good safety profile”. In addition, in data set [2], the efficacy result is on record as “efficacious”.
